Publication PMC7010785, “Nandrolone induces a stem cell-like phenotype in human hepatocarcinoma-derived cell line inhibiting mitochondrial respiratory activity” (Scientific Reports, 2020)

Biological target: T1, mitochondrial respiratory chain complex III (CxIII, coenzyme Q-cytochrome c oxidoreductase) (Bos taurus, UniProt P00157+P13272)
T1 construct: gene MT-CYB; native complex in mitochondria isolated from bovine heart
Assay: spectrophotometric initial rates of cytochrome c reduction with graded decylubiquinol in isolated mitochondria; reciprocal and Dixon plots
Assay type: biochemical
Source text: spectrophotometric initial rates of cytochrome c reduction with graded decylubiquinol in isolated mitochondria; reciprocal and Dixon plots on mitochondrial respiratory chain complex III (CxIII, coenzyme Q-cytochrome c oxidoreductase) | indicate a competitive modality of inhibition.

Work on `C[C@]12CC[C@H]3[C@@H](CCC4=CC(=O)CC[C@@H]43)[C@@H]1CC[C@@H]2O` [ND, nandrolone] yielded a Ki of roughly 300 µM.
